Tests used:
Type in all cases: in vivo, human
[1] = test system: patients with locally advanced or metastatic Non-Small Cell Lung Cancer; assay: Survival by stem cell score, Phase III trial OAK (NCT02008227), Atezolizumab vs Docetaxel; conditions: for HR overall survival, score low vs high: within treatment
Text: We hypothesized that patients with a low abundance of stem cell maintenance-related cancer cells may respond to PD-L1 blockade leading to beneficial effect in patients who received the treatment. We analyzed 739 patients with non-small cell lung cancer who received Atezolizumab (MPDL3280A, n=358) and Docetaxel (n=381) in a Phase III clinical trial (NCT02008227, OAK) (https://clinicaltrials.gov/ct2/show/NCT02008227). This study was sponsored by Genentech Inc., a member of the Roche Group, which provided the study drug.
The protocol and its amendments were approved by the relevant institutional review boards or ethics committees, and all participants provided written informed consent. This study was conducted in accordance with the Declaration of Helsinki and International Conference on Harmonization Guidelines for Good Clinical Practice. Tumor specimens at baseline were archived and taken for gene expression profiling performed by RNA Sequencing (RNA-Seq). In total, 144 human stem cell related genes derived from Gene Ontology were selected and further processed resulting in a selected a list of 4 genes consisting of ASPM, CNOT3, LRPS, and PBX1, which are associated with abundance of stem cell maintenance-related cancer cells. The log2 CPM expression values of each selected gene across the whole cohort were divided at medium expression level for the higher expression ones (+) and lower/no expression ones (−). Using in-house R scripts, the two defined subgroups were plotted against the Kaplan-Meier survival curves.
(§1) As several genes linked to stem cell maintenance-related cancer cells were associated with the survival advantages, we investigated the impact of multiple genes involved in stem cell maintenance-related cancer cells by defining a cumulative cancer stem cell gene score reflecting the cumulative expression of these marker genes. Each gene's expression is first standardized by a z-score:
(§2) where μ and μ are estimated in the entire cohort or in the selected subgroups. After the standardization step, these standardized z-score values are averaged across genes within each patient. The OAK cohort was corrected for the sex of patient, age, histolog as well as PD-L1 status. […] In addition, we also identified an advantage in progression-free survival.

[2] = test system: patients with locally advanced or metastatic Urothelial Bladder Cancer; assay: Survival by stem cell score, Phase III trial IMvigor211 (NCT02302807), Atezolizumab vs standard of care
Text: (§3) We hypothesized that patients with a low abundance of stem cell maintenance-related cancer cells may respond to PD-L1 blockade leading to beneficial effect in patients who received the treatment. We analyzed 750 patients with locally advanced or metastatic urothelial bladder cancer who received Atezolizumab (n=369), Paclitaxel (n=123), Vinflunine (n=194) or Docetaxel (n=41) in a Phase III clinical trial (NCT02302807, IMvigor 211) (https://clinicaltrials.gov/ct2/show/NCT02302807). This study was sponsored by Genentech Inc., a member of the Roche Group, which provided the study drug. The protocol and its amendments were approved by the relevant institutional review boards or ethics committees, and all participants provided written informed consent. This study was conducted in accordance with the Declaration of Helsinki and International Conference on Harmonization Guidelines for Good Clinical Practice.
(§4) Tumor specimens at baseline were archived and taken for gene expression profiling performed by RNA Sequencing (RNA-Seq). In total, 144 human stem cell related genes derived from Gene Ontology were selected and further processed resulting in a selected a list of 4 genes consisting of ASPM, CNOT3, LRPS, and PBX1, which are associated with abundance of stem cell maintenance-related cancer cells. The log2 CPM expression values of each selected gene across the whole cohort were divided at medium expression level for the higher expression ones (+) and lower/no expression ones (−). Using in-house R scripts, the two defined subgroups were plotted against the Kaplan-Meier survival curves. […] Table 3 summarizes the median survival as well as HR per single gene used for the stem cell maintenance-related cancer cells signature.
as §1
as §2, with “IMvigor211” for “OAK”, “age” for “age, histolog”, “smoking” for “PD-L1”, “adavantage” for “advantage”

[3] = test system: patients with locally advanced or metastatic Non-Small Cell Lung Cancer; assay: Survival by stem cell score, Phase II trial BIRCH (NCT02031458), Atezolizumab
Text: as §3, with “597” for “750”, “non-small cell lung” for “locally advanced or metastatic urothelial bladder”, “Atezolizumab” for “Atezolizumab (n=369), Paclitaxel (n=123), Vinflunine (n=194) or Docetaxel (n=41)”, “II” for “III”, “(NCT02031458, BIRCH) (https://clinicaltrials.gov/ct2/show/NCT02031458).” for “(NCT02302807, IMvigor 211) (https://clinicaltrials.gov/ct2/show/NCT02302807).”
as §4, with “Sequencing (RNA-Seq).).” for “Sequencing (RNA-Seq).”, “Table 2” for “Table 3”
as §1
as §2, with “BIRCH” for “OAK”, “age” for “age, histolog”, “smoking” for “PD-L1”

[4] = cumulative cancer stem cell score (ASPM, CNOT3, LRP5, PBX1) low
[5] = cumulative cancer stem cell score high
[6] = cumulative cancer stem cell score
[7] = gene ASPM, Stem cell score high
[8] = gene CNOT3, Stem cell score high
[9] = gene CNOT3, Stem cell score low
[10] = gene LRP5, Stem cell score high
[11] = gene PBX1, Stem cell score high
[12] = cumulative cancer stem cell score low

## CC(=O)O[C@@]12CO[C@@H]1C[C@H](O)[C@@]1(C)C(=O)[C@H](O)C3=C(C)[C@@H](OC(=O)[C@H](O)[C@@H](NC(=O)OC(C)(C)C)c4ccccc4)C[C@@](O)([C@@H](OC(=O)c4ccccc4)[C@H]21)C3(C)C [Docetaxel]
[1]; [4]
  median overall survival: 334 days
[1]; [5]
  median overall survival: 282 days
[1]; [6]
  HR overall survival, score low vs high: 0.76
[1]; [7]
  Median survival: 270 days
[1]; gene ASPM, Stem cell score low
  Median survival: 365 days
[1]; [8]
  Median survival: 299 days
[1]; [9]
  Median survival: 339 days
[1]; [10]
  Median survival: 320 days
[1]; gene LRP5, Stem cell score low
  Median survival: 312 days
[1]; [11]
  Median survival: 262 days
[1]; gene PBX1, Stem cell score low
  Median survival: 356 days

## atezolizumab
[2]; [6]
  HR overall survival, score low vs high: 0.64
  HR progression-free survival, score low vs high: 0.69
[2]; [5]
  median overall survival: ~211 days
  median progression-free survival: ~63 days
[2]; [12]
  median overall survival: ~357 days
  median progression-free survival: ~66 days
[2]; cumulative stem cell score low groups, Atezolizumab vs standard of care
  HR overall survival, predictive effect for Atezolizumab: 0.70
[2]; gene ASPM
  HR (low vs high): HR: 1.05
[2]; [7]
  Median survival: 271 days
[2]; gene ASPM, Stem cell score low
  HR (Atezo vs SoC): HR: 0.93
  Median survival: 257 days
[2]; gene CNOT3
  HR (low vs high): HR: 0.85
[2]; [8]
  Median survival: 242 days
[2]; [9]
  HR (Atezo vs SoC): HR: 0.83
  Median survival: 297 days
[2]; gene LRP5
  HR (low vs high): HR: 0.76
[2]; [10]
  Median survival: 241 days
[2]; gene LRP5, Stem cell score low
  HR (Atezo vs SoC): HR: 0.74
  Median survival: 298 days
[2]; gene PBX1
  HR (low vs high): HR: 0.74
[2]; [11]
  Median survival: 247 days
[2]; gene PBX1, Stem cell score low
  HR (Atezo vs SoC): HR: 0.67
  Median survival: 279 days
[1]; [6]
  HR progression-free survival, score low vs high: 0.69
  HR overall survival, score low vs high: 0.67
[1]; [4]
  median overall survival: 492 days
[1]; [5]
  median overall survival: ~257 days
  median progression-free survival: ~51 days
[1]; [12]
  median progression-free survival: ~86 days
[1]; cumulative stem cell score low group, Atezolizumab vs Docetaxel
  HR overall survival, predictive effect for Atezolizumab: 0.72
[1]; [7]
  Median survival: 256 days
[1]; gene ASPM, Stem cell score low
  Median survival: 467 days
[1]; gene ASPM, Stem cell score low, Atezolizumab vs Docetaxel
  HR (Atezo vs SoC): HR: 0.84
[1]; gene ASPM, score low vs high within treatment
  HR (low vs high): HR: 0.65
[1]; [8]
  Median survival: 337 days
[1]; [9]
  Median survival: 433 days
[1]; gene CNOT3, Stem cell score low, Atezolizumab vs Docetaxel
  HR (Atezo vs SoC): HR: 0.83
[1]; gene CNOT3, score low vs high within treatment
  HR (low vs high): HR: 0.89
[1]; [10]
  Median survival: 384 days
[1]; gene LRP5, Stem cell score low
  Median survival: 405 days
[1]; gene LRP5, Stem cell score low, Atezolizumab vs Docetaxel
  HR (Atezo vs SoC): HR: 0.83
[1]; gene LRP5, score low vs high within treatment
  HR (low vs high): HR: 0.97
[1]; [11]
  Median survival: 329 days
[1]; gene PBX1, Stem cell score low
  Median survival: 456 days
[1]; gene PBX1, Stem cell score low, Atezolizumab vs Docetaxel
  HR (Atezo vs SoC): HR: 0.92
[1]; gene PBX1, score low vs high within treatment
  HR (low vs high): HR: 0.89
[3]; [6]
  HR overall survival, score low vs high: 0.77
  HR progression-free survival, score low vs high: 0.74
[3]; [5]
  median overall survival: ~437 days
  median progression-free survival: ~89 days
[3]; [12]
  median overall survival: ~583 days
  median progression-free survival: ~127 days
[3]; gene ASPM
  HR (low vs high): HR: 0.78
[3]; [7]
  Median survival: 457 days
[3]; gene ASPM, Stem cell score low
  Median survival: 566 days
[3]; gene CNOT3
  HR (low vs high): HR: 0.88
[3]; [8]
  Median survival: 482 days
[3]; [9]
  Median survival: 510 days
[3]; gene LRP5
  HR (low vs high): HR: 1.02
[3]; [10]
  Median survival: 498 days
[3]; gene LRP5, Stem cell score low
  Median survival: 471 days
[3]; gene PBX1
  HR (low vs high): HR: 1.02
[3]; [11]
  Median survival: 510 days
[3]; gene PBX1, Stem cell score low
  Median survival: 471 days
